Source: patent publication US20090312396A1, “METHODS FOR CANCER TREATMENT USING TAK1 INHIBITORS” (AstraZeneca AB, priority 2006, published 2009)
Where two headings read alike, the source gives them in different places.

Experiments:
Raji = assay: AlamarBlue proliferation assay, GI50; type: cell-based, human; details: 72 hours
Method: (§1) The TAK1 inhibitors are known in the art (see for example, WO 2003010158, WO 2003010163 and WO2004063186 the disclosures of which are incorporated by reference herein). All cell lines were plated at 10,000 cells/well in flat-bottomed 96 well plates and dosed with test compounds in triplicate over a 10 point dosing range from 0 to 30 μmolesL^−1. All cell lines were incubated with test compounds for a total of 72 hours. Background levels were determined for a control (undosed) plate within 2 hours of dosing test compounds. Following the dosing period, the extent of proliferation was measured by adding 1/10 (vol/vol) AlamarBlue reagent to every well and incubating the plates for a further 4 hours. The reaction was stopped by the addition of SDS to a final concentration of 0.1%. Fluorescence was measured at 545 nm (excitation) and 600 nm (emission). Growth inhibition 50 (GI50) values were determined for each test compound across the panel.

HEL92.1.7 = assay: AlamarBlue proliferation assay, GI50; type: cell-based; details: Homo sapiens, HEL 92.1.7, 72 hours, Table 4, read-out: GI50 HEL92.1.7 Erythroleukemia
Method: as §1

Karpas231 = assay: AlamarBlue proliferation assay, GI50; type: cell-based; details: Homo sapiens, 72 hours, Table 4, read-out: GI50 Karpas231 B-ALL
Method: as §1

ARH77 = assay: AlamarBlue proliferation assay, GI50; type: cell-based; details: Homo sapiens, ARH-77, 72 hours
Method: as §1

Jurkat = assay: AlamarBlue proliferation assay, GI50; type: cell-based; details: Homo sapiens, 72 hours, Table 4, read-out: GI50 Jurkat T-ALL
Method: as §1

DOHH2 = assay: AlamarBlue proliferation assay, GI50; type: cell-based; details: Homo sapiens, DOHH-2, 72 hours, Table 4, read-out: GI50 DOHH2 FL
Method: as §1

OCI-LY19 = assay: AlamarBlue proliferation assay, GI50; type: cell-based; details: Homo sapiens, 72 hours, Table 4, read-out: GI50 OCI-LY19 DLBCL
Method: as §1

KG1a = assay: AlamarBlue proliferation assay, GI50; type: cell-based; details: Homo sapiens, KG-1a, 72 hours, Table 4, read-out: GI50 KG1a AML
Method: as §1

WSU-NHL = assay: AlamarBlue proliferation assay, GI50; type: cell-based; details: Homo sapiens, 72 hours, Table 4, read-out: GI50 WSU-NHL B-NHL
Method: as §1

SUDHL4 = assay: AlamarBlue proliferation assay, GI50; type: cell-based; details: Homo sapiens, SU-DHL-4, 72 hours, Table 4, read-out: GI50 SUDHL4 DLBCL
Method: as §1

MEC1 = assay: AlamarBlue proliferation assay, GI50; type: cell-based; details: Homo sapiens, 72 hours
Method: as §1

NAMALWA = assay: AlamarBlue proliferation assay, GI50; type: cell-based; details: Homo sapiens, 72 hours, Table 6, read-out: GI50 NAMALWA Burkitts Lymphoma
Method: as §1
(§2) The experiments to generate the results for both Tables 5 and 6 were performed as described above.

IM-9 = assay: AlamarBlue proliferation assay, GI50; type: cell-based; details: Homo sapiens, 72 hours, Table 5, read-out: GI50 IM-9 B lymph
Method: as §1, §2

RPMI-8226 = assay: AlamarBlue proliferation assay, GI50; type: cell-based; details: Homo sapiens, 72 hours, Table 5, read-out: GI50 RPMI-8226 Multiple myeloma
Method: as §1, §2

JVM-3 = assay: AlamarBlue proliferation assay, GI50; type: cell-based; details: Homo sapiens, 72 hours, Table 6, read-out: GI50 JVM-3 B-PLL
Method: as §1, §2

MOLP-8 = assay: AlamarBlue proliferation assay, GI50; type: cell-based; details: Homo sapiens, 72 hours, Table 5, read-out: GI50 MOLP-8 Multiple myeloma
Method: as §1, §2

TAK1 = biological target: T1, TAK1 (Homo sapiens, UniProt O43318); assay: TAK1 enzyme inhibition; type: biochemical
T1 sequence (O43318 1-606): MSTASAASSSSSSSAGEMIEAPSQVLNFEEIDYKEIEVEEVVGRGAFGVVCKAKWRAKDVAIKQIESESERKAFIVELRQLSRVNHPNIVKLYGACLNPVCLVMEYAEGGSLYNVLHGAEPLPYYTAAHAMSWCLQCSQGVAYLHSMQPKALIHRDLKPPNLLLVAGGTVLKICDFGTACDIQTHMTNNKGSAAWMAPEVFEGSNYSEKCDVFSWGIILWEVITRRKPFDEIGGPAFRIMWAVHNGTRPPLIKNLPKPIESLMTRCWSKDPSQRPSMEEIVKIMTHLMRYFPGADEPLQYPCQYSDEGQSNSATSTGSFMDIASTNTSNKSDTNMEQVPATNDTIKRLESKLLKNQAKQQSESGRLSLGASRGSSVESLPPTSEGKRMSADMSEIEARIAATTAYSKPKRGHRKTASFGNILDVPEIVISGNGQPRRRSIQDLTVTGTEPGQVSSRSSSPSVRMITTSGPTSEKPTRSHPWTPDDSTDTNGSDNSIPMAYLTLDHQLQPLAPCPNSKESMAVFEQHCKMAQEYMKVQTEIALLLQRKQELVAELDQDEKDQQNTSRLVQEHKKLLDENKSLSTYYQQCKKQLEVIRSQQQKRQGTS
T1 sequence (Q15750 1-504 partner): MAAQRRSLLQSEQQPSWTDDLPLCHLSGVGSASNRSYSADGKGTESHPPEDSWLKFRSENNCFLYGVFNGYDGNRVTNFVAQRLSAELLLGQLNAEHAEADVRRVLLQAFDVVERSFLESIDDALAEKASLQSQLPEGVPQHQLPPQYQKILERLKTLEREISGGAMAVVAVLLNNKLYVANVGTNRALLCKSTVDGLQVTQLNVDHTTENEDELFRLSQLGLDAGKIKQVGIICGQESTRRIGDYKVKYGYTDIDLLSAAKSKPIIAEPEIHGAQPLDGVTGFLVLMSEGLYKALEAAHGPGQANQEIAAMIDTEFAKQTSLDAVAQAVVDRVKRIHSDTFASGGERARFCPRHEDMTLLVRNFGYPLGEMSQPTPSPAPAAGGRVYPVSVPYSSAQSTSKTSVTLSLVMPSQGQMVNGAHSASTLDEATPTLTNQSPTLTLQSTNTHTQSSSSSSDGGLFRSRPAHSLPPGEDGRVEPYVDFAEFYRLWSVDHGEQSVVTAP

GI50 (Raji; Table 6, read-out: GI50 Raji Burkitts Lymphoma): > 30000 nM
GI50 (Raji; Homo sapiens, Raji, Table 4, read-out: GI50 Raji Burkitts Lymphoma): > 30000 nM
GI50 (Karpas231): 60 nM
GI50 (Jurkat): 10100 nM
GI50 (OCI-LY19): 54 nM
GI50 (SUDHL4): 3080 nM
GI50 (RPMI-8226): 1600 nM
IC50 (TAK1; Table 4, read-out: TAK1 pIC50 (enzyme) (converted)): 63.1 nM
TAK1 pIC50 (TAK1; Table 5): 7.2
SMILES: COC(C)(C)CNCc1ccc(-c2cc(NC(N)=O)c(C(N)=O)s2)cc1 [Compound 4, 3-[(aminocarbonyl)amino]-5-(4-{[(2-methoxy-2-methylpropyl)amino]methyl}phenyl)thiophene-2-carboxamide]
GI50 (HEL92.1.7): 1470 nM
GI50 (ARH77; Table 4, read-out: GI50 ARH77 Plasma cell leukemia): 3720 nM
GI50 (ARH77; Table 5, read-out: GI50 ARH-77 plasma cell leukemia): 3720 nM
GI50 (DOHH2): 101 nM
GI50 (KG1a): 1090 nM
GI50 (WSU-NHL): 270 nM
GI50 (MEC1; Table 4, read-out: GI50 MEC1 B-CLL): 2990 nM
GI50 (MEC1; Table 6, read-out: GI50 MEC-1 B-CLL): 2990 nM
GI50 (NAMALWA): 2960 nM
GI50 (IM-9): 210 nM
GI50 (JVM-3): 140 nM
GI50 (MOLP-8): 90 nM
